Assay results published in publication PMC12548092, “Exploring Helical Fraying Linked to Dynamics and Catalysis in Adenylate Kinase” (Biochemistry, 2025).

Molecular target: T1, hAK1 (Homo sapiens, UniProt P00568)
T1 construct: gene AK1; pET24d, E. coli BL21 (DE3), Blue Sepharose and size exclusion; 15N/13C-labelled
T1 sequence (P00568 1-194): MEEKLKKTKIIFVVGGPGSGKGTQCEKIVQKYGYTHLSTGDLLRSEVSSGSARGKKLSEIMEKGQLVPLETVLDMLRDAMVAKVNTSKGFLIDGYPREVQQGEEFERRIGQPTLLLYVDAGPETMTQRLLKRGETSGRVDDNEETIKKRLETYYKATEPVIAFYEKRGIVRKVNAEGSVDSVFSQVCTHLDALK
Assay: NMR backbone assignment and […] relaxation order parameters
Format: binding
Details: 30 mM MES, 50 mM NaCl, pH 5.5 (assignment), 298 K

Nc1ncnc2c1ncn2[C@@H]1O[C@H](COP(=O)(O)OP(=O)(O)OP(=O)(O)OP(=O)(O)OP(=O)(O)OC[C@H]2O[C@@H](n3cnc4c(N)ncnc43)[C@H](O)[C@@H]2O)[C@@H](O)[C@H]1O [Ap5A]
NMR backbone assignment and 15N relaxation order parameters: one helical turn in the α-helix at the N-terminus of the catalytic loop
